Laboratory results: US12668600B2 (Kumquat Biosciences Inc., priority 2023, dated 2026)

How the values were obtained:
Assay type in all cases: biochemical
[1] = biological target: T1, KRAS G12D (Homo sapiens, UniProt P01116, G12D); assay: HTRF KRAS-SOS1 interaction assay, KRAS G12D; conditions: binned ≤2 μM / >2 μM, read-out: Inhibition of KRAS G12D (IC50)
T1 construct: made in house; host or cells: E. coli, e.g. BL21 (DE3)
In short: (§1)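 Inhibition of the KRAS–SOS1 interaction was measured by HTRF (ex 337, em 620/665 nm) after ≥~10 min incubation. Donor: anti-GST-Eu on GST-KRAS; acceptor: anti-6His-XL665 on His-hSOS1, in HEPES pH 7.4 buffer with DTT, BSA and Igepal. Compounds in duplicate at 0.01–10 μM; IC50 from emission ratio.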

[2] = biological target: T2, KRAS G12S (Homo sapiens, UniProt P01116, G12S); assay: HTRF KRAS-SOS1 interaction assay, KRAS G12S; conditions: binned ≤2 μM / >2 μM, read-out: Inhibition of KRAS G12S (IC50)
T2 construct: made in house; host or cells: E. coli, e.g. BL21 (DE3)
T2 sequence (P01116 1-188 isoform P01116-2 G12S): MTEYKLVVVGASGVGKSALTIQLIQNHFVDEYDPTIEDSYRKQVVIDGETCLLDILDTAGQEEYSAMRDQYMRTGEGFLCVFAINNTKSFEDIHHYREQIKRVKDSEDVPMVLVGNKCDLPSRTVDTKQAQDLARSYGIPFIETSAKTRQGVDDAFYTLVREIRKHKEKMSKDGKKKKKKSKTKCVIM
In short: as §1

[3] = biological target: T3, KRAS G12V (Homo sapiens, UniProt P01116, G12V); assay: HTRF KRAS-SOS1 interaction assay, KRAS G12V; conditions: binned ≤2 μM / >2 μM, read-out: Inhibition of KRAS G12V (IC50)
T3 construct: made in house; host or cells: E. coli, e.g. BL21 (DE3)
T3 sequence (P01116 1-188 isoform P01116-2 G12V): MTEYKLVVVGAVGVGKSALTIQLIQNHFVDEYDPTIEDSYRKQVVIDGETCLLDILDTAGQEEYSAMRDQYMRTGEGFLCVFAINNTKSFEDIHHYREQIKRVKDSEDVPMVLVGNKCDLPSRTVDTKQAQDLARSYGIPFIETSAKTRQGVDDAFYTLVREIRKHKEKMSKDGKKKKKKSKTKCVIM
In short: as §1

[4] = biological target: T4, KRAS WT (Homo sapiens, UniProt P01116); assay: HTRF KRAS-SOS1 interaction assay, wildtype KRAS; conditions: binned ≤2 μM / >2 μM, read-out: Inhibition of KRAS WT (IC50)
T4 construct: made in house; host or cells: E. coli, e.g. BL21 (DE3)
T4 sequence (P01116 1-188 isoform P01116-2): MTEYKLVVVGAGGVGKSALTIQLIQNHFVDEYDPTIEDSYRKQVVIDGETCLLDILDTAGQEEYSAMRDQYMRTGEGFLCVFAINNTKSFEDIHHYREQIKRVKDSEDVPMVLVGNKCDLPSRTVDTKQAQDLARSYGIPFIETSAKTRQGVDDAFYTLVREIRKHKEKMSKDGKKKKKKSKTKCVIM
In short: as §1

T1 sequence (P01116 1-188 isoform P01116-2 G12D): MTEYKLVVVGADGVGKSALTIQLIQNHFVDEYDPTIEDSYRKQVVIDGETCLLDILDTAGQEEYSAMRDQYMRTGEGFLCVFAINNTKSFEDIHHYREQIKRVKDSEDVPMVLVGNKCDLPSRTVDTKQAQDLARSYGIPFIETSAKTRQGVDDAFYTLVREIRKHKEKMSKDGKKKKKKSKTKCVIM

Compound: N#Cc1c(N)sc2c(F)ccc(-c3c(C(F)(F)F)c4c5c(nc(OC[C@@]67CCCN6C[C@H](F)C7)nc5c3F)N([C@H](CCn3cccn3)c3cccnc3N)CCO4)c12 [Compound 829, 2-amino-4-(4-((R)-1-(2-aminopyridin-3-yl)-3-(1H-pyrazol-1-yl)propyl)-10-fluoro-2-(((2R,7aS)-2-fluorotetrahydro-1H-pyrrolizin-7a(5H)-yl)methoxy)-8-(trifluoromethyl)-5,6-dihydro-4H-[1,4]oxazepino[5,6,7-de]quinazolin-9-yl)-7-fluorobenzo[b]thiophene-3-carbonitrile]
- IC50 [1]: ≤ 2 µM
- IC50 [2]: ≤ 2 µM
- IC50 [3]: ≤ 2 µM
- IC50 [4]: ≤ 2 µM

Compound: CO[C@H]1CCN(C)[C@@H]1COc1nc2c3c(c(C(F)(F)F)c(-c4ccc(F)c5sc(N)c(C#N)c45)c(F)c3n1)OCCN2[C@H](C)c1cccnc1N [Compound 673, 2-amino-4-(4-((R)-1-(2-aminopyridin-3-yl)ethyl)-10-fluoro-2-(((2R,3S)-3-methoxy-1-methylpyrrolidin-2-yl)methoxy)-8-(trifluoromethyl)-5,6-dihydro-4H-[1,4]oxazepino[5,6,7-de]quinazolin-9-yl)-7-fluorobenzo[b]thiophene-3-carbonitrile]
- IC50 [1]: ≤ 2 µM
- IC50 [2]: ≤ 2 µM
- IC50 [3]: ≤ 2 µM
- IC50 [4]: ≤ 2 µM

Compound: N#Cc1c(N)sc2c(F)ccc(-c3c(Cl)c4c5c(nc(OC[C@@]67CCCN6C[C@H](F)C7)nc5c3F)N([C@H](C/C=C\C(F)(F)F)c3cccnc3N)CCO4)c12 [Compound 845, 2-amino-4-(4-((R,Z)-1-(2-aminopyridin-3-yl)-5,5,5-trifluoropent-3-en-1-yl)-8-chloro-10-fluoro-2-(((2R,7aS)-2-fluorotetrahydro-1H-pyrrolizin-7a(5H)-yl)methoxy)-5,6-dihydro-4H-[1,4]oxazepino[5,6,7-de]quinazolin-9-yl)-7-fluorobenzo[b]thiophene-3-carbonitrile]
- IC50 [1]: ≤ 2 µM
- IC50 [2]: ≤ 2 µM
- IC50 [3]: ≤ 2 µM
- IC50 [4]: ≤ 2 µM

Compound: CC(=O)c1c(F)ccc2cc(O)cc(-c3nc4c5c(nc(OC[C@@]67CCCN6C[C@H](F)C7)nc5c3F)N(C(C)c3cccnc3N)CCO4)c12 (mixture of isomers) [Compound 744]
- IC50 [1]: ≤ 2 µM
- IC50 [2]: ≤ 2 µM
- IC50 [3]: ≤ 2 µM
- IC50 [4]: ≤ 2 µM

Compound: C[C@H](c1cc(C#N)cnc1N)N1CCOc2c(Cl)c(-c3ccc(F)c4sc(N)c(C#N)c34)c(F)c3nc(OC[C@@]45CCCN4C[C@H](F)C5)nc1c23 [Compound 873, 6-amino-5-((1R)-1-(9-(2-amino-3-cyano-7-fluorobenzo[b]thiophen-4-yl)-8-chloro-10-fluoro-2-(((2R,7aS)-2-fluorotetrahydro-1H-pyrrolizin-7a(5H)-yl)methoxy)-5,6-dihydro-4H-[1,4]oxazepino[5,6,7-de]quinazolin-4-yl)ethyl)nicotinonitrile]
- IC50 [1]: ≤ 2 µM
- IC50 [2]: ≤ 2 µM
- IC50 [3]: ≤ 2 µM
- IC50 [4]: ≤ 2 µM

Compound: N#Cc1c(N)sc2c(F)ccc(-c3c(C(F)(F)F)c4c5c(nc(OC[C@@]67CCCN6C[C@H](F)C7)nc5c3F)N([C@H](CCC(F)(F)F)c3cc(Cl)cnc3N)CCO4)c12 [Compound 874, 2-amino-4-(4-((R)-1-(2-amino-5-chloropyridin-3-yl)-4,4,4-trifluorobutyl)-10-fluoro-2-(((2R,7aS)-2-fluorotetrahydro-1H-pyrrolizin-7a(5H)-yl)methoxy)-8-(trifluoromethyl)-5,6-dihydro-4H-[1,4]oxazepino[5,6,7-de]quinazolin-9-yl)-7-fluorobenzo[b]thiophene-3-carbonitrile]
- IC50 [1]: ≤ 2 µM
- IC50 [2]: ≤ 2 µM
- IC50 [3]: ≤ 2 µM
- IC50 [4]: ≤ 2 µM

Compound: C[C@H](c1nccnc1N)N1CCOc2c(C(F)(F)F)c(-c3ccc(F)c4sc(N)c(C#N)c34)c(F)c3nc(OC[C@@]45CCCN4C[C@@]4(CC4(F)F)C5)nc1c23 [Compound 773, 2-amino-4-(4-((R)-1-(3-aminopyrazin-2-yl)ethyl)-2-(((1S,7a′S)-2,2-difluorodihydro-1′H,3′H-spiro[cyclopropane-1,2′-pyrrolizin]-7a′(5′H)-yl)methoxy)-10-fluoro-8-(trifluoromethyl)-5,6-dihydro-4H-[1,4]oxazepino[5,6,7-de]quinazolin-9-yl)-7-fluorobenzo[b]thiophene-3-carbonitrile]
- IC50 [1]: ≤ 2 µM
- IC50 [2]: ≤ 2 µM
- IC50 [3]: ≤ 2 µM
- IC50 [4]: ≤ 2 µM

Compound: C[C@H](c1cccnc1N)N1CCOc2c(Cl)c(-c3ccc(F)c4sc(N)c(C#N)c34)c(F)c3nc(OCC45CCCC4CCC5)nc1c23 (single isomer, unassigned) [Compound 674]
- IC50 [1]: > 2 µM
- IC50 [2]: > 2 µM
- IC50 [3]: > 2 µM
- IC50 [4]: > 2 µM

Compound: CC(=O)c1c(F)ccc2cc(O)cc(-c3nc4c5c(nc(OC[C@@H]6CCCN6C)nc5c3F)N(C(C)c3cccnc3N)CCO4)c12 (single isomer, unassigned) [Compound 750]
- IC50 [1]: ≤ 2 µM
- IC50 [2]: ≤ 2 µM
- IC50 [3]: ≤ 2 µM
- IC50 [4]: ≤ 2 µM

Compound: C=C[C@H]1COc2c(Cl)c(-c3ccc(F)c4sc(N)c(C#N)c34)c(F)c3nc(OC[C@@]45CCCN4C[C@H](F)C5)nc(c23)N1C(C)c1cccnc1N (single isomer, unassigned) [Compound 732]
- IC50 [1]: ≤ 2 µM
- IC50 [2]: ≤ 2 µM
- IC50 [3]: ≤ 2 µM
- IC50 [4]: ≤ 2 µM

Compound: C[C@H](c1cccnc1N)N1c2nc(OC[C@@]34CCCN3C[C@H](F)C4)nc3c(F)c(-c4ccc(F)c5sc(N)c(C#N)c45)c(Cl)c(c23)OC[C@@H]1C [Compound 800, 2-amino-4-((5S)-4-((R)-1-(2-aminopyridin-3-yl)ethyl)-8-chloro-10-fluoro-2-(((2R,7aS)-2-fluorotetrahydro-1H-pyrrolizin-7a(5H)-yl)methoxy)-5-methyl-5,6-dihydro-4H-[1,4]oxazepino[5,6,7-de]quinazolin-9-yl)-7-fluorobenzo[b]thiophene-3-carbonitrile]
- IC50 [1]: ≤ 2 µM
- IC50 [2]: ≤ 2 µM
- IC50 [3]: ≤ 2 µM
- IC50 [4]: ≤ 2 µM

Compound: C=C1CN2CC(=C)CC2(COc2nc3c4c(c(C(F)(F)F)c(-c5ccc(F)c6sc(N)c(C#N)c56)c(F)c4n2)OCCN3[C@H](C)c2cncnc2N)C1 (single isomer, unassigned) [Compound 707]
- IC50 [1]: ≤ 2 µM
- IC50 [2]: ≤ 2 µM
- IC50 [3]: ≤ 2 µM
- IC50 [4]: ≤ 2 µM

Compound: Cc1c(F)c(N)cc(-c2nc3c4c(nc(OC[C@@]56CCCN5C[C@H](F)C6)nc4c2F)N([C@H](C)c2cccnc2N)C[C@H](C)O3)c1C(F)(F)F (single isomer, unassigned) [Compound 687]
- IC50 [1]: ≤ 2 µM
- IC50 [2]: ≤ 2 µM
- IC50 [3]: ≤ 2 µM
- IC50 [4]: ≤ 2 µM

Compound: C[C@H](c1cc(F)cnc1N)N1CCOc2c(C(F)(F)F)c(-c3ccc(F)c4sc(N)c(C#N)c34)c(F)c3nc(OC[C@@]45CCCN4C[C@@]4(CC4(F)F)C5)nc1c23 [Compound 878, 2-amino-4-(4-((R)-1-(2-amino-5-fluoropyridin-3-yl)ethyl)-2-(((1S,7a′S)-2,2-difluorodihydro-1′H,3′H-spiro[cyclopropane-1,2′-pyrrolizin]-7a′(5′H)-yl)methoxy)-10-fluoro-8-(trifluoromethyl)-5,6-dihydro-4H-[1,4]oxazepino[5,6,7-de]quinazolin-9-yl)-7-fluorobenzo[b]thiophene-3-carbonitrile]
- IC50 [1]: ≤ 2 µM
- IC50 [2]: ≤ 2 µM
- IC50 [3]: ≤ 2 µM
- IC50 [4]: ≤ 2 µM

Compound: C[C@H](c1cc(F)cnc1N)N1CCOc2c(C(F)(F)F)c(-c3ccc(F)c4sc(N)c(C#N)c34)c(F)c3nc(OCC4(CN5CC[C@@H](F)C5)CC4)nc1c23 [Compound 644, 2-amino-4-(4-((R)-1-(2-amino-5-fluoropyridin-3-yl)ethyl)-10-fluoro-2-((1-(((R)-3-fluoropyrrolidin-1-yl)methyl)cyclopropyl)methoxy)-8-(trifluoromethyl)-5,6-dihydro-4H-[1,4]oxazepino[5,6,7-de]quinazolin-9-yl)-7-fluorobenzo[b]thiophene-3-carbonitrile]
- IC50 [1]: ≤ 2 µM
- IC50 [2]: ≤ 2 µM
- IC50 [3]: ≤ 2 µM
- IC50 [4]: ≤ 2 µM

Compound: N#Cc1c(N)sc2cccc(-c3c(Cl)c4c5c(nc(OC[C@@]67CCCN6C[C@H](F)C7)nc5c3F)N([C@@H](c3cccnc3N)C(F)F)CCO4)c12 (single isomer, unassigned) [Compound 802]
- IC50 [1]: > 2 µM
- IC50 [2]: > 2 µM
- IC50 [3]: > 2 µM
- IC50 [4]: > 2 µM

Compound: N#Cc1c(N)sc2c(F)ccc(-c3c(C(F)(F)F)c4c5c(nc(OC[C@@]67CCCN6CC(=C(F)F)C7)nc5c3F)N([C@H](CCC3CCOCC3)c3cccnc3N)CCO4)c12 [Compound 808, 2-amino-4-(4-((R)-1-(2-aminopyridin-3-yl)-3-(tetrahydro-2H-pyran-4-yl)propyl)-2-(((S)-2-(difluoromethylene)tetrahydro-1H-pyrrolizin-7a(5H)-yl)methoxy)-10-fluoro-8-(trifluoromethyl)-5,6-dihydro-4H-[1,4]oxazepino[5,6,7-de]quinazolin-9-yl)-7-fluorobenzo[b]thiophene-3-carbonitrile]
- IC50 [1]: ≤ 2 µM
- IC50 [2]: ≤ 2 µM
- IC50 [3]: ≤ 2 µM
- IC50 [4]: ≤ 2 µM

Compound: CN(C)CCC[C@H](c1cccnc1N)N1CCOc2c(C(F)(F)F)c(-c3ccc(F)c4sc(N)c(C#N)c34)c(F)c3nc(OC[C@@]45CCCN4C[C@H](F)C5)nc1c23 (single isomer, unassigned) [Compound 705]
- IC50 [1]: ≤ 2 µM
- IC50 [2]: ≤ 2 µM
- IC50 [3]: ≤ 2 µM
- IC50 [4]: ≤ 2 µM
